Where “and” joins values, the source holds several entries; their conditions need not be identical. Identical values can stand only once.
Key:
[1] = molecular target: T1, PilF1–889 (full‐length PilF) (Thermus thermophilus, UniProt Q5SLC9); test: ITC c‐di‐GMP binding, full‐length PilF; settings: 20 °C
T1 sequence (Q5SLC9 1-889): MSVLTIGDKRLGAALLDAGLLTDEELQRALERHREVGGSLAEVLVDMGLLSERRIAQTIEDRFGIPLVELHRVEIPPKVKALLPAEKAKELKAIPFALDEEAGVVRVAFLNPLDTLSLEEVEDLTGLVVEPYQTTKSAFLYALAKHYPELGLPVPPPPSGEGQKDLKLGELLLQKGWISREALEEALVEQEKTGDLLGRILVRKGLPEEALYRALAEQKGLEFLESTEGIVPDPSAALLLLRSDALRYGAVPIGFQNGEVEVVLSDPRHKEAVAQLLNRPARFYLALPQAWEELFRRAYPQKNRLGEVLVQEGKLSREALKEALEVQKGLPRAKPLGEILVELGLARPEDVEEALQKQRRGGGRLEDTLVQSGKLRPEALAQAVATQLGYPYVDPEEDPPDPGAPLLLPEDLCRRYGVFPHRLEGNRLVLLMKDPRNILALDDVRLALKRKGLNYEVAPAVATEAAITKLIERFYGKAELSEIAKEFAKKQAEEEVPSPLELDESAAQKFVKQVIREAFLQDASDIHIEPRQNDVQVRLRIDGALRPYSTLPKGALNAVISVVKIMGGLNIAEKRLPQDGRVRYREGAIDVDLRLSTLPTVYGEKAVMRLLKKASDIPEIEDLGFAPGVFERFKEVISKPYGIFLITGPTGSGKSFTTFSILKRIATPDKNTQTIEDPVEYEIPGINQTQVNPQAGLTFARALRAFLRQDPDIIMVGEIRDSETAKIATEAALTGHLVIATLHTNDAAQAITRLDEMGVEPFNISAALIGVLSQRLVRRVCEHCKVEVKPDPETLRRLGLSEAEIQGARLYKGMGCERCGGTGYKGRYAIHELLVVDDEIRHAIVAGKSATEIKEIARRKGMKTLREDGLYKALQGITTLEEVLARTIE

[2] = molecular target: T2, PilF1–65 F63Y H33Q S39R A41G I55L I59L R62Q (PilF1–65 F63Y mut6) (Thermus thermophilus, UniProt Q5SLC9, A41G/F63Y/H33Q/I55L/I59L/R62Q/S39R); test: NMR titration with c‐di‐GMP, PilF1–65 F63Y mut6; type: binding; settings: high excess of ligand (10fold), 20 °C
T2 sequence (Q5SLC9 1-65 H33Q/S39R/A41G/I55L/I59L/R62Q/F63Y): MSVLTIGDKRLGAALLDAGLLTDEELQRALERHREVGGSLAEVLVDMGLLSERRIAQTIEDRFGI
Protocol: (§1) For NMR experiments, all PilF1–154, PilF1–65 and PilF9–65 samples were prepared in a buffer containing 50 mM BisTris‐HCl pH 5.8, 200 mM NaCl, 1 mM β‐mercaptoethanol with the addition of 5 % (v/v) D2O. 200 μM 2,2‐dimethyl‐2‐silapentane‐5‐sulfonic acid (DSS) was used to directly reference the ^1H chemical shifts internally. With the appropriate conversion factors, the heteronuclear ^13C, ^15N and ^31P chemical shifts were referenced indirectly.[73] All spectra were processed and referenced with Bruker TopSpin™ versions 3.5 and 4.0.7. Chemical shifts were assigned in CARA.[74] NMR‐spectra were acquired on Bruker AVANCE 600, 700, 800, 900 and 950 MHz spectrometers equipped with cryogenic triple resonance probes at 45 °C for PilF1–154 constructs and at 20 °C for the PilF1–65 and the PilF9–65 constructs.
(§2) NMR titration experiments were carried out as ligand binding assays with uniformly ^15N labeled protein samples from 50 μM to 100 μM and unlabeled c‐di‐GMP. A series of ^15N‐HSQC, ^1H,^15N‐SOFAST‐HMQC or ^15N‐BEST‐TROSY‐HSQC spectra were recorded with increasing c‐di‐GMP concentrations (up to 1.4 mM) and chemical shift changes were evaluated with TopSpin™ 4.0.7.

[3] = molecular target: T3, PilF9–65 F63Y H33Q S39R R62Q (Thermus thermophilus, UniProt Q5SLC9, F63Y/H33Q/R62Q/S39R); test: NMR titration with c‐di‐GMP, PilF9–65 F63Y H33Q S39R R62Q; type: binding; settings: high excess of the ligand (15fold), 20 °C
T3 sequence (Q5SLC9 9-65 H33Q/S39R/R62Q/F63Y): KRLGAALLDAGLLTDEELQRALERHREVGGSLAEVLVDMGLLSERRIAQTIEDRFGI
Protocol: as §1, §2

[4] = molecular target: T4, PilF9–65 F63Y H33Q S39R A41G I55L I59L R62Q (PilF9–65 F63Y mut6) (Thermus thermophilus, UniProt Q5SLC9, A41G/F63Y/H33Q/I55L/I59L/R62Q/S39R); test: ITC c‐di‐GMP binding, PilF9–65 F63Y mut6
T4 sequence (Q5SLC9 9-65 H33Q/S39R/A41G/I55L/I59L/R62Q/F63Y): T3 sequence (Q5SLC9 9-65 H33Q/S39R/R62Q/F63Y)
Protocol: (§3) The c‐di‐GMP binding capabilities of the various PilF1–154, PilF1–65 and PilF9–65 constructs were characterized by isothermal titration calorimetry (ITC) measurements in three independent titrations for each construct with detectable binding to c‐di‐GMP. All ITC‐measurements were carried out in 50 mM Tris‐HCl pH 7.5, 200 mM sodium chloride, 1 mM β‐mercaptoethanol at 20 °C using a MicroCal iTC200 instrument (Malvern Pananalytical, UK). In total 40 μl c‐di‐GMP was titrated to 270 μl protein after an initial delay of 120 s in 20 injections while stirring the sample with 750 rpm. The first injection of 0.2 μl c‐di‐GMP in 0.4 s was followed by 19 successive injections of 2 μl in 4 s separated by a 180 s delay using a reference power of 11 μcal^−1. The feedback mode was set to high. Protein and c‐di‐GMP concentrations ranged from 30 μM to 100 μM and 300 μM to 1000 μM, respectively, and were adjusted to the respective binding affinities of the corresponding constructs to optimize measurement precision. Processing of the thermograms was carried out with Origin 7.0 (OriginLab) using a one‐site binding model. An overview of all ITC measurements is given in Supplementary Table 1.

PilF9–65 F63Y H33Q R62Q = test: ITC c‐di‐GMP binding, PilF9–65 F63Y H33Q R62Q; set-up: species or system Thermus thermophilus; settings: S39 reintroduced
Protocol: as §3

PilF1–65 F63Y [5] = test: NMR titration with c‐di‐GMP, PilF1–65 F63Y; type: binding, Thermus thermophilus
Protocol: as §1, §2

PilF1–154 (GSPII‐A) = test: ITC c‐di‐GMP binding, isolated GSPII‐A domain; set-up: species or system Thermus thermophilus; settings: isolated PilF1–154
Protocol: as §3

MshEN = molecular target: MshEN; set-up: method as in PMID 27578558; settings: monomeric c‐di‐GMP; read-out: KD (affinity) for MshEN; cited from earlier work
PilF1–154 = test: NMR titration with c‐di‐GMP, PilF1–154; type: binding, Thermus thermophilus; settings: 10 equivalents of c‐di‐GMP, 45 °C
Protocol: as §1, §2

[6] = molecular target: T5, PilF9–65 F63Y H33Q S39R A41G R62Q (Thermus thermophilus, UniProt Q5SLC9, A41G/F63Y/H33Q/R62Q/S39R); test: ITC c‐di‐GMP binding, PilF9–65 F63Y H33Q S39R A41G R62Q; settings: 20 °C
T5 sequence (Q5SLC9 9-65 H33Q/S39R/A41G/R62Q/F63Y): T3 sequence (Q5SLC9 9-65 H33Q/S39R/R62Q/F63Y)
Protocol: as §3

[7] = system: PilF1–154 H33Q S39R A41G I55L I59L R62Q; test: NMR titration with c‐di‐GMP, MshEN‐like PilF1–154 construct; type: binding, Thermus thermophilus; settings: 15 equivalents of c‐di‐GMP
Protocol: as §1, §2

[8] = molecular target: T2, PilF1–65 F63Y H33Q S39R A41G I55L I59L R62Q (PilF1–65 F63Y mut6); test: ITC c‐di‐GMP binding, PilF1–65 F63Y mut6
Protocol: as §3

PilF1–65 F63Y [9] = test: ITC c‐di‐GMP binding, N‐terminal subdomain; set-up: species or system Thermus thermophilus
Protocol: as §3

[10] = molecular target: T3, PilF9–65 F63Y H33Q S39R R62Q; test: ITC c‐di‐GMP binding, PilF9–65 F63Y H33Q S39R R62Q; settings: 20 °C
Protocol: as §3

Nc1nc2c(ncn2C2OC3COP(=O)(O)OC4C(COP(=O)(O)OC3C2O)OC(n2cnc3c(=O)[nH]c(N)nc32)C4O)c(=O)[nH]1 (centres unmarked) [c‐di‐GMP, 3’→5’ cyclic dimeric guanosine monophosphate]
ΔH (binding event 1) ([1]; event 1): -11763 ± 780 cal/mol | ΔS (binding event 1) ([1]; event 1): -10.4 ± 2.7 cal/mol/deg | ΔH (binding event 2) ([1]; event 2): -15683 ± 970 cal/mol | ΔS (binding event 2) ([1]; event 2): -16.5 ± 2.2 cal/mol/deg | Kd ([1]; pH 7.5, PilF1–889, binding event 1, read-out: KD1 (first binding event)): 324 nM | N (binding event 1) ([1]; stoichiometry, event 1): 0.72 ± 0.1 | N (binding event 2) ([1]; stoichiometry, event 2): 0.59 ± 0.03 | chemical shift changes on adding c‐di‐GMP [2]: large chemical shift changes | c‐di‐GMP binding in NMR titration [3]: saturated ligand binding | N ([4]; ITC, 20 °C): 1.2 ± 0.1 | ΔH ([4]; ITC, 20 °C): -12953 ± 441 cal/mol | ΔS ([4]; ITC, 20 °C): -17.9 ± 1.4 cal/mol/deg | Kd ([4]; ITC, 20 °C, pH 7.5, PilF9–65 F63Y mut6): 695 ± 42 nM | difference in the free energy of binding vs PilF1–65 F63Y mut6 ([4]; at 20° C): 1.6 kcal/mol | c‐di‐GMP binding activity in ITC (PilF9–65 F63Y H33Q R62Q): complete loss of c‐di‐GMP binding activity | c‐di‐GMP binding in NMR titration (PilF1–65 F63Y [5]): not detectable | c‐di‐GMP binding in ITC (PilF1–154 (GSPII‐A)): did not show any sign of c‐di‐GMP binding | Kd (MshEN): 500 nM and ~500 nM | chemical shift changes on adding c‐di‐GMP (PilF1–154): does not cause any chemical shift changes | N [6]: 0.8 ± 0.1 | ΔH [6]: -10127 ± 499 cal/mol | ΔS [6]: -6.4 ± 1.7 cal/mol/deg | Kd ([6]; pH 7.5, PilF9–65 F63Y H33Q S39R A41G R62Q): 1800 ± 300 nM | c‐di‐GMP binding in NMR‐titration [7]: no c‐di‐GMP binding | N ([8]; ITC, 20 °C): 0.6 ± 0.2 | ΔH ([8]; ITC, 20 °C): -1342 ± 513 cal/mol | ΔS ([8]; ITC, 20 °C): 17.1 ± 2.3 cal/mol/deg | Kd ([8]; ITC, 20 °C, pH 7.5, PilF1–65 F63Y mut6): 13 ± 2 µM | difference in the free energy of binding vs MshEN ([8]; at 20° C): ~ 1.9 kcal/mol | difference in the free energy of binding vs N‐terminal subdomain (residue 1–62) of MshEN ([8]; at 20° C): ~2.3 kcal/mol | c‐di‐GMP binding in ITC (PilF1–65 F63Y [9]): not detectable | N [10]: 0.7 ± 0.1 | ΔH [10]: -9574 ± 243 cal/mol | ΔS [10]: -3.6 ± 0.7 cal/mol/deg | Kd ([10]; pH 7.5, PilF9–65 F63Y H33Q S39R R62Q): 19 ± 6 µM

Source: article PMC12002112, “NMR Solution Structure of the N‐Terminal GSPII Domain from the Thermus Thermophilus Traffic ATPase PilF and Reconstruction of its c‐di‐GMP Binding Capability” (Chembiochem, 2025)
